Measurements published in US10150770B2, “Crystal form of bisulfate of JAK inhibitor and preparation method therefor” (Jiangsu Hengrui Medicine Co., Ltd., priority 2014, dated 2018).

Assay: Stability test of solid forms spread flat in the air (lighting, heating, high humidity), purity detected by HPLC
Format: physicochemical
Settings: for purity as detected by HPLC, 40° C.: heating 40° C.; for purity as detected by HPLC, 60° C.: heating 60° C.; for purity as detected by HPLC, RH 75%: high humidity RH 75%; for purity as detected by HPLC, RH 90%: high humidity RH 90%; for purity as detected by HPLC, Lighting: lighting 4500 Lux
Protocol: The amorphous sample prepared in Example 1 and crystal form I prepared in Example 3 were spread flat in the air to test their stability under the conditions of lighting (4500 Lux), heating (40° C., 60° C.), and high humidity (RH 75%, RH 90%).

## COc1nsc(NC(=O)N2C[C@H]3C[C@H](N(C)c4ncnc5[nH]ccc45)C[C@H]3C2)n1.O=S(=O)(O)O [Amorphous Form, (3aR,5s,6aS)—N-(3-methoxyl-1,2,4-thiadiazole-5-yl)-5-(methyl(7H-pyrrolo[2,3-d]pyrimidine-4-yl)amino)hexahydrocyclopenta[c]pyrrole-2(1H)-formamide bisulfate]
Day 0
  purity as detected by HPLC, 40° C.: 98.33%
  purity as detected by HPLC, 60° C.: 98.33%
  purity as detected by HPLC, RH 75%: 98.33%
  purity as detected by HPLC, RH 90%: 98.33%
  purity as detected by HPLC, Lighting: 98.33%
Day 5
  purity as detected by HPLC, 40° C.: 97.65%
  purity as detected by HPLC, 60° C.: 94.53%
  purity as detected by HPLC, RH 75%: 98.32%
  purity as detected by HPLC, RH 90%: 99.14%
  purity as detected by HPLC, Lighting: 98.04%
Day 10
  purity as detected by HPLC, 40° C.: 96.61%
  purity as detected by HPLC, 60° C.: 92.12%
  purity as detected by HPLC, RH 75%: 98.16%
  purity as detected by HPLC, RH 90%: 99.12%
  purity as detected by HPLC, Lighting: 97.51%
  effect of high humidity on stability: does not have much effect

## COc1nsc(NC(=O)N2C[C@H]3C[C@H](N(C)c4ncnc5[nH]ccc45)C[C@H]3C2)n1.O=S(=O)(O)O [Crystal form I, (3aR,5s,6aS)—N-(3-methoxyl-1,2,4-thiadiazole-5-yl)-5-(methyl(7H-pyrrolo[2,3-d]pyrimidine-4-yl)amino)hexahydrocyclopenta[c]pyrrole-2(1H)-formamide bisulfate]
Day 0
  purity as detected by HPLC, 40° C.: 99.45%
  purity as detected by HPLC, 60° C.: 99.45%
  purity as detected by HPLC, RH 75%: 99.45%
  purity as detected by HPLC, RH 90%: 99.45%
  purity as detected by HPLC, Lighting: 99.45%
Day 5
  purity as detected by HPLC, 40° C.: 99.42%
  purity as detected by HPLC, 60° C.: 99.36%
  purity as detected by HPLC, RH 75%: 99.42%
  purity as detected by HPLC, RH 90%: 99.42%
  purity as detected by HPLC, Lighting: 99.40%
Day 10
  purity as detected by HPLC, 40° C.: 99.42%
  purity as detected by HPLC, 60° C.: 99.35%
  purity as detected by HPLC, RH 75%: 99.40%
  purity as detected by HPLC, RH 90%: 99.39%
  purity as detected by HPLC, Lighting: 99.39%
  effect of high humidity on stability: does not have much effect
Lighting and high temperature, compared with the amorphous sample
  stability under the conditions of lighting and high temperature: significantly better than that of the amorphous sample
